Laboratory results taken from patent publication US20220331303A1, “USE OF AN OREXIN 2 RECEPTOR AGONIST FOR THE TREATMENT OF EXCESSIVE SLEEPINESS” (Takeda Pharmaceutical Company Limited, priority 2019, published 2022).
“And” between values parts separate entries of the source, which are not always exact repeats. Equal entries are not always repeated.

Test system: sleep-deprived healthy volunteers
Experiment: Maintenance of wakefulness test (MWT) in sleep-deprived healthy volunteers
Format: in vivo, human
Details: for Total Sleep Time LS Mean / Total Sleep Time LS Mean Difference vs Placebo Estimate / Total Wake Time LS Mean / Total Wake Time LS Mean Difference vs Placebo Estimate: M: Modafinil 300 mg; for Duration Total Microsleeps (MWT), LS Mean / Duration Total Microsleeps (MWT), LS Mean Difference vs placebo / Latency to Sleep Onset on MWT, LS Mean / Latency to Sleep Onset on MWT, LS Mean Difference vs placebo / Stage N1 Duration (MWT), LS Mean / Stage N1 Duration (MWT), LS Mean Difference vs placebo / Stage N2 Duration (MWT), LS Mean / Stage N2 Duration (MWT), LS Mean Difference vs placebo / Total Microsleeps (MWT), LS Mean / Total Microsleeps (MWT), LS Mean Difference vs placebo: Modafinil 300 mg (M)
Description: The primary objective of this study was to determine the effect of Compound A (methyl (2R,3S)-3-((methylsulfonyl)amino)-2-(((cis-4-phenylcyclohexyl)oxy)methyl)piperidine-1-carboxylate), 44 mg (low dose [LD]) and 112 mg (high dose [HD]), after a single IV dose (compared to placebo) on promoting wakefulness as measured by sleep latency on the MWT (performed at approximately 2, 4, 6, and 8 hours post-dosing starting at approximately 1:00 AM and then at approximate times of 3:00, 5:00, and 7:00 AM) in sleep-deprived healthy volunteers.
This was a phase 1b, single-center, randomized, double-blind, double-dummy, placebo- and active-controlled, 4-period Williams design crossover study to evaluate the PK, PD, and safety of Compound A in sleep-deprived healthy volunteers. Compound A was administered as a 9-hour IV infusion.
Healthy adult male subjects aged 18 to 40 years, inclusive, who satisfied the inclusion and exclusion criteria were enrolled in the trial. On Day 1 of treatment period 1, eligible subjects were equally randomized to 4 treatment sequence groups (sequence 1 to 4) which defined the order of administration for Compound A LD, Compound A HD (both delivered as a 9-hour IV infusion), modafinil 300 mg, and placebo.
During the day before dosing on Day 1, participants were administered the KSS at scheduled timepoints. A practice MWT session was performed on Day 1 treatment period 1 (only once during the entire study) to familiarize subjects with the procedures. Study drug was administered in the clinic in the evening on Day 1 of each treatment period. Subjects underwent the MWT and KSS at specified timepoints after the start of the infusion. Subjects were required to stay awake between the MWT tests. Following completion of the IV infusion on Day 2, subjects underwent an additional MWT test. When the final MWT test and cognitive testing were completed, subjects were allowed to sleep (recovery sleep) for approximately 6 hours. PSG recording was collected during this time. Subjects were discharged from the unit after completion on Day 2 with continuing actigraphy upon discharge (to begin on Day −6 before the next treatment period). The interval between each subsequent treatment period was at least 7 days to ensure that the subject's circadian rhythm had returned to a normal cycle. Subject's vital signs, including BP, were monitored during the dosing and testing period. Blood samples for determination of Compound A plasma concentrations were collected at specified timepoints on Days 1 and 2 of each treatment period. Subjects completed the Columbia-Suicide Severity Rating Scale (C-SSRS) during screening, before study drug administration, and before discharge on Day 2 of each treatment period.
Primary endpoint: Latency for each MWT, defined as time to sleep onset.

[1] = Average Overall, MWT during infusion
[2] = Modafinil 300 mg, after the end of infusion (1 hour post end of infusion)

For `NC(=O)C[S+]([O-])C(c1ccccc1)c1ccccc1` (centres unmarked) [Modafinil, modafinil, reference compound], which “Total Sleep Time LS Mean” value (2 HOURS POST INFUSION START) is on record?
Its value is 0.88 min.

What about the “Total Sleep Time LS Mean Difference vs Placebo Estimate” value (from here on “Total Sleep Time LS Mean Difference”) (2 HOURS POST INFUSION START) of the same compound?
The value was -1.85 min.

And the “Total Wake Time LS Mean” value (2 HOURS POST INFUSION START)?
The value was 34.87 min.

And the “Total Wake Time LS Mean Difference vs Placebo Estimate” value (from here on “Total Wake Time LS Mean Difference”) (2 HOURS POST INFUSION START)?
Its value is 17.15 min.

What about the “Total Sleep Time LS Mean” value (4 HOURS POST INFUSION START) of the same compound?
The value was 0.96 min.

What about the “Total Sleep Time LS Mean Difference” value (4 HOURS POST INFUSION START) of the same compound?
Its value is -2.19 min.

And the “Total Wake Time LS Mean” value (4 HOURS POST INFUSION START)?
Its value is 36.45 min.

And the “Total Wake Time LS Mean Difference” value (4 HOURS POST INFUSION START)?
Its value is 26.40 min.

And the “Total Sleep Time LS Mean” value (6 HOURS POST INFUSION START)?
The value was 1.25 min.

What about the “Total Sleep Time LS Mean Difference” value (6 HOURS POST INFUSION START) of the same compound?
Its value is -0.98 min.

What about the “Total Wake Time LS Mean” value (6 HOURS POST INFUSION START) of the same compound?
The value was 33.11 min.

And the “Total Wake Time LS Mean Difference” value (6 HOURS POST INFUSION START)?
Its value is 26.69 min.

What about the “Total Sleep Time LS Mean” value (8 HOURS POST INFUSION START) of the same compound?
Its value is 2.35 min.

And the “Total Sleep Time LS Mean Difference” value (8 HOURS POST INFUSION START)?
Its value is -0.57 min.

What about the “Total Wake Time LS Mean” value (8 HOURS POST INFUSION START) of the same compound?
The value was 22.32 min.

What about the “Total Wake Time LS Mean Difference” value (8 HOURS POST INFUSION START) of the same compound?
Its value is 18.67 min.

And the “Total Sleep Time LS Mean” value [1]?
Its value is 1.36 min.

And the “Total Sleep Time LS Mean Difference” value [1]?
Its value is -1.40 min.

And the “Total Wake Time LS Mean” value [1]?
Its value is 31.69 min.

And the “Total Wake Time LS Mean Difference” value [1]?
The value was 22.23 min.

What about the “Average total wake time (MWT), LS mean difference vs placebo” value (Modafinil 300 mg) of the same compound?
Its value is 22.23 min.

What about the “Total sleep time (MWT), LS mean difference vs placebo” value (Modafinil 300 mg) of the same compound?
The value was -1.40 min.

What about the “Duration Total Microsleeps (MWT), LS Mean” value (2 hours post infusion start) of the same compound?
Its value is 5.75 s.

And the “Duration Total Microsleeps (MWT), LS Mean Difference vs placebo” value (2 hours post infusion start)?
The value was -3.05 s.

What about the “Latency to Sleep Onset on MWT, LS Mean” value (2 hours post infusion start) of the same compound?
Its value is 35.57 min.

And the “Latency to Sleep Onset on MWT, LS Mean Difference vs placebo” value (2 hours post infusion start)?
The value was 19.89 min.

And the “Stage N1 Duration (MWT), LS Mean” value (2 hours post infusion start)?
The value was 0.47 min.

What about the “Stage N1 Duration (MWT), LS Mean Difference vs placebo” value (2 hours post infusion start) of the same compound?
Its value is -0.68 min.

What about the “Stage N2 Duration (MWT), LS Mean” value (2 hours post infusion start) of the same compound?
Its value is 0.36 min.

And the “Stage N2 Duration (MWT), LS Mean Difference vs placebo” value (2 hours post infusion start)?
Its value is -0.49 min.

And the “Total Microsleeps (MWT), LS Mean” value (2 hours post infusion start)?
The value was 1.06.

What about the “Total Microsleeps (MWT), LS Mean Difference vs placebo” value (2 hours post infusion start) of the same compound?
The value was −0.74.

What about the “Duration Total Microsleeps (MWT), LS Mean” value (4 hours post infusion start) of the same compound?
The value was 7.91 s.

What about the “Duration Total Microsleeps (MWT), LS Mean Difference vs placebo” value (4 hours post infusion start) of the same compound?
Its value is -4.39 s.

And the “Latency to Sleep Onset on MWT, LS Mean” value (4 hours post infusion start)?
Its value is 35.60 min.

What about the “Latency to Sleep Onset on MWT, LS Mean Difference vs placebo” value (4 hours post infusion start) of the same compound?
Its value is 26.50 min.

What about the “Stage N1 Duration (MWT), LS Mean” value (4 hours post infusion start) of the same compound?
The value was 0.68 min.

And the “Stage N1 Duration (MWT), LS Mean Difference vs placebo” value (4 hours post infusion start)?
The value was -0.97 min.

What about the “Stage N2 Duration (MWT), LS Mean” value (4 hours post infusion start) of the same compound?
The value was 0.20 min.

And the “Stage N2 Duration (MWT), LS Mean Difference vs placebo” value (4 hours post infusion start)?
Its value is -0.95 min.

What about the “Total Microsleeps (MWT), LS Mean” value (4 hours post infusion start) of the same compound?
The value was 1.27.

And the “Total Microsleeps (MWT), LS Mean Difference vs placebo” value (4 hours post infusion start)?
The value was −1.08.

And the “Duration Total Microsleeps (MWT), LS Mean” value (6 hours post infusion start)?
The value was 9.70 s.

What about the “Duration Total Microsleeps (MWT), LS Mean Difference vs placebo” value (6 hours post infusion start) of the same compound?
Its value is 2.30 s.

What about the “Latency to Sleep Onset on MWT, LS Mean” value (6 hours post infusion start) of the same compound?
The value was 31.89 min.

And the “Latency to Sleep Onset on MWT, LS Mean Difference vs placebo” value (6 hours post infusion start)?
The value was 25.74 min.

What about the “Stage N1 Duration (MWT), LS Mean” value (6 hours post infusion start) of the same compound?
The value was 0.84 min.

What about the “Stage N1 Duration (MWT), LS Mean Difference vs placebo” value (6 hours post infusion start) of the same compound?
Its value is -0.31 min.

And the “Stage N2 Duration (MWT), LS Mean” value (6 hours post infusion start)?
The value was 0.20 min.

And the “Stage N2 Duration (MWT), LS Mean Difference vs placebo” value (6 hours post infusion start)?
Its value is -0.30 min.

What about the “Total Microsleeps (MWT), LS Mean” value (6 hours post infusion start) of the same compound?
Its value is 1.85.

And the “Total Microsleeps (MWT), LS Mean Difference vs placebo” value (6 hours post infusion start)?
Its value is 0.60.

What about the “Duration Total Microsleeps (MWT), LS Mean” value (8 hours post infusion start) of the same compound?
Its value is 12.64 s.

What about the “Duration Total Microsleeps (MWT), LS Mean Difference vs placebo” value (8 hours post infusion start) of the same compound?
The value was 4.84 s.

What about the “Latency to Sleep Onset on MWT, LS Mean” value (8 hours post infusion start) of the same compound?
Its value is 20.44 min.

What about the “Latency to Sleep Onset on MWT, LS Mean Difference vs placebo” value (8 hours post infusion start) of the same compound?
Its value is 16.91 min.

And the “Stage N1 Duration (MWT), LS Mean” value (8 hours post infusion start)?
Its value is 1.15 min.

What about the “Stage N1 Duration (MWT), LS Mean Difference vs placebo” value (8 hours post infusion start) of the same compound?
The value was 0.00 min.

And the “Stage N2 Duration (MWT), LS Mean” value (8 hours post infusion start)?
The value was 0.89 min.

What about the “Stage N2 Duration (MWT), LS Mean Difference vs placebo” value (8 hours post infusion start) of the same compound?
The value was -0.21 min.

What about the “Total Microsleeps (MWT), LS Mean” value (8 hours post infusion start) of the same compound?
Its value is 2.22.

What about the “Total Microsleeps (MWT), LS Mean Difference vs placebo” value (8 hours post infusion start) of the same compound?
The value was 0.92.

What about the “Duration Total Microsleeps (MWT), LS Mean” value (average overall) of the same compound?
The value was 9.00 s.

What about the “Duration Total Microsleeps (MWT), LS Mean Difference vs placebo” value (average overall) of the same compound?
The value was -0.08 s.

What about the “Latency to Sleep Onset on MWT, LS Mean” value (average overall) of the same compound?
Its value is 30.87 min and 30.87 (1.888) min.

And the “Latency to Sleep Onset on MWT, LS Mean Difference vs placebo” value (average overall)?
Its value is 22.26 min and 22.3 min and 22.62 min and 22.26 (2.634) min.

What about the “Stage N1 Duration (MWT), LS Mean” value (average overall) of the same compound?
The value was 0.79 min.

And the “Stage N1 Duration (MWT), LS Mean Difference vs placebo” value (average overall)?
Its value is -0.49 min.

And the “Stage N2 Duration (MWT), LS Mean” value (average overall)?
The value was 0.41 min.

What about the “Stage N2 Duration (MWT), LS Mean Difference vs placebo” value (average overall) of the same compound?
Its value is -0.49 min.

And the “Total Microsleeps (MWT), LS Mean” value (average overall)?
The value was 1.60.

And the “Total Microsleeps (MWT), LS Mean Difference vs placebo” value (average overall)?
Its value is −0.08.

What about the “Latency to Sleep Onset on MWT, LS Mean (SE)” value [2] of the same compound?
The value was 21.42 (2.168).

And the “Latency to Sleep Onset on MWT, LS Mean Difference vs placebo, Estimate (SE)” value [2]?
The value was 16 minutes and 16.77 (2.692) minutes.
